Consider 17 compounds from publication PMC12541710, “Design, synthesis, and anticancer evaluation of novel pyrazole–thiophene hybrid derivatives as multitarget inhibitors of wild EGFR, mutant (T790M) EGFR, and VEGFR-2” (RSC Advances, 2025).

Each structure is given as a SMILES string. Like-named read-outs stand apart in the source and are kept apart here.

For series [1], the system named is MCF-7. Description: MTT cytotoxicity assay, MCF-7. As to conditions: Homo sapiens, MCF7, 24 h, read-out: In vitro Cytotoxicity (IC50, μM) MCF-7. The source says: (§1) Two human cancer cell lines, HepG2 (human hepatocellular carcinoma) and MCF-7 (human breast adenocarcinoma), were used to test the produced compounds' cytotoxic activities. […] HepG2 cells, a hepatocellular carcinoma model, are widely used for studying VEGF/VEGFR-2-mediated angiogenesis and tumor progression.[76,77] Thus, these models provided a relevant system for assessing the potential EGFR/VEGFR inhibitory effects of our synthesized compounds. Accordingly, provide complementary systems for assessing the multitarget inhibitory potential of the synthesized pyrazole–thiophene hybrids against EGFR- and VEGFR-2-mediated oncogenic pathways. […] The cytotoxic activity of the synthesized pyrazole–thiophene derivatives was initially evaluated against two standard human cancer cell lines: MCF-7 and HepG2, which are widely used in cytotoxicity screening using the 3-(4,5-dimethylthiazol-2-yl)-2,5-diphenyltetrazolium bromide (MTT) assay (SI data, S1).[81–84] […]
(§2) S1. Analysis of Cytotoxic Inhibitory Concentration 50 (IC 50) with respect to HepG2 and MCF-7 The cytotoxic activity of the synthesized compounds was evaluated against MCF-7 and HepG2 cell lines using the 3-(4,5-dimethylthiazol-2-yl)-2,5-diphenyltetrazolium bromide (MTT) assay 2-5.
(§3) 100 µg/mL streptomycin, then seeded in 96 -well plates (1 × 10⁴ cells/well) and incubated at 37 °C with 5% CO₂ for 48 h. Test compounds, prepared by serial dilutio n, were added for 24 h, after which 20 µL of MTT solution (5 mg/mL) was introduced and incubated for 4 h. Formazan crystals were dissolved […]
(§4) Cell viability was ca lculated relative to untreated controls, and IC₅₀ values were obtained from dose – response curves by nonlinear regression. […]
(Tetrazolium assays rely on reduction of a dye to a coloured formazan, in cell work by metabolically active cells.)

In series [2] the test system is HepG2. Description: MTT cytotoxicity assay, HepG2. As to conditions: Homo sapiens, HepG2, 24 h, read-out: In vitro Cytotoxicity (IC50, μM) HepG2.
Excerpt: as §1, §2, §3, §4

For a further series, the target named is T1, wild-type EGFR (Homo sapiens, UniProt P00533).
T1 construct: purchased #40321
Kind of series: EGFR enzyme inhibition assay (wild type), Kinase-Glo kit. It is filed as biochemical. As to the method: (§5) Supporting Information (SI)
(§6) Formazan crystals were dissolved
(§7) response curves by nonlinear regression.
(§8) performed in 96 -well plates containing purified recombinant EGFR. Each we ll received 25 µL of
(§9) control). […] The reaction was initiated
(§10) After incubation, 50 µL of
(§11) min. Luminescence was then recorded using a microplate ELISA reader. Erlotinib served as t he
(§12) incubated for 5 min at room temperature.

The target in the next series is T2, EGFR mutant (T790M) (Homo sapiens, UniProt P00533, T790M).
T2 construct: purchased #40323
Description: EGFR enzyme inhibition assay (mutant T790M), Kinase-Glo kit. It counts as biochemical. As to the method: as §5, §6, §7, §8, §9, §10, §11, §12
For orientation: In Kinase-Glo more light means more ATP remaining.

The target of another series is T3, VEGFR-2 (Homo sapiens, UniProt P35968).
T3 construct: purchased Cell Signaling Technology #7788
Description: VEGFR-2 enzyme inhibition assay (HTScan Tyrosine Kinase Assay). It is filed as biochemical.

Series [3] relates to MCF-7 cells. Description: Cell cycle analysis by PI flow cytometry. It counts as cell-based, human. As to conditions: MCF-7, 10 µM, 48 h. Here is the method: S3. Assessment of the Impact of Compound 14 on Cell Cycle Progression and Apoptosis in MCF - […]
MCF-7 breast cancer cells were seeded under standard culture conditions and treated with 10 µM of compound 14 for 48 h. After treatment, cells were harvested by trypsinization, washed with PBS, and fixed in ice-cold 66% ethanol at 4 °C for at least 2 h. Prior to analysis, cells were washed again with PBS and stained using the Propidium Iodide Flow Cytometry Kit ( ab139418, Abcam, UK) according to the manufacturer’s instructions. Staining was carried out with PI and RNase at 37 °C in the dark for 30 min. Cell cycle distribution (G0/G1, S, and G2/M phases) was then determined by measuring PI fluorescence intensity in the FL2 channel 8. […]

Series [4] has as its system MCF-7 cells. Kind of series: Annexin V-FITC/PI apoptosis and necrosis assay. It counts as cell-based, human. The settings on record: MCF-7, 10 µM, 48 h. As to the method: Flow cytometric assay and the pro-apoptotic activity of compound 14 were assessed using the Annexin V-FITC Apoptosis Detection Kit (BioVision, USA; Cat. No. K101-25). The assay of compound 14 was performed in accordance with the reported procedure,[87,88] (SI data, S3). […]
The pro-apoptotic activity of compound 14 was assessed using the Annexin V -FITC Apoptosis Detection Kit (BioVision, USA; Cat. No. K101 -25) according to the manufacturer’s instructions.
MCF-7 cells (1–5 × 10⁵) were seeded and treated with 10 µM of 14 for 48 h. After treatment, both floating and adherent cells were collected by gentle trypsinization, washed with serum -containing medium, and resuspended in 500 µL of 1× Binding Buffer. Each sample was stained with 5 µL Annexin V-FITC and 5 µL propidium iodide (50 µg/mL) for 5 min at room temperature in the dark, then analyzed by flow cytometry. […]

Series [5] relates to MCF-7. The settings on record: reference drug value; read-out: In vitro Cytotoxicity (IC50, μM) MCF-7; cited from earlier work.
The subject of series [6] is HepG2. As to conditions: reference drug value; read-out: In vitro Cytotoxicity (IC50, μM) HepG2; cited from earlier work.
Series [7] relates to human pancreatic tumor (AsPC-1) and human glioblastoma (U251). Also on record: method as in PMID 26492233. As to conditions: read-out: IC50 against AsPC-1 and U251; cited from earlier work.

What is called IC50 is the concentration needed to halve the response being measured.

T3 sequence (P35968 789-1356 limits assumed): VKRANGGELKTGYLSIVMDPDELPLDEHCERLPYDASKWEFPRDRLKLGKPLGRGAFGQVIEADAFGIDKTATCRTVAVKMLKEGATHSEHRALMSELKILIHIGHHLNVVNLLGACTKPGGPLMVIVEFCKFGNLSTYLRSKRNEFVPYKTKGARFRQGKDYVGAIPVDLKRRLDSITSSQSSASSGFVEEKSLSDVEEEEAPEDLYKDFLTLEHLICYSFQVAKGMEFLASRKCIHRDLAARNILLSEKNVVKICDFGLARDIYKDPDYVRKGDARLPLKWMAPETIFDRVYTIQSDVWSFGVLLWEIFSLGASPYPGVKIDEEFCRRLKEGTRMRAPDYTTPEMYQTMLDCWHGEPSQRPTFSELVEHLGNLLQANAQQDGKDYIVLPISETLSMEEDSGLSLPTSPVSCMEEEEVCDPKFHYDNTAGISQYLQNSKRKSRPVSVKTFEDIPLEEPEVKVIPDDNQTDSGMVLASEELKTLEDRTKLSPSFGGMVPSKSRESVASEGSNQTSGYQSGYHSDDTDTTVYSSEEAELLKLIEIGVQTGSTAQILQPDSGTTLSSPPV
T1 sequence (P00533 25-1210): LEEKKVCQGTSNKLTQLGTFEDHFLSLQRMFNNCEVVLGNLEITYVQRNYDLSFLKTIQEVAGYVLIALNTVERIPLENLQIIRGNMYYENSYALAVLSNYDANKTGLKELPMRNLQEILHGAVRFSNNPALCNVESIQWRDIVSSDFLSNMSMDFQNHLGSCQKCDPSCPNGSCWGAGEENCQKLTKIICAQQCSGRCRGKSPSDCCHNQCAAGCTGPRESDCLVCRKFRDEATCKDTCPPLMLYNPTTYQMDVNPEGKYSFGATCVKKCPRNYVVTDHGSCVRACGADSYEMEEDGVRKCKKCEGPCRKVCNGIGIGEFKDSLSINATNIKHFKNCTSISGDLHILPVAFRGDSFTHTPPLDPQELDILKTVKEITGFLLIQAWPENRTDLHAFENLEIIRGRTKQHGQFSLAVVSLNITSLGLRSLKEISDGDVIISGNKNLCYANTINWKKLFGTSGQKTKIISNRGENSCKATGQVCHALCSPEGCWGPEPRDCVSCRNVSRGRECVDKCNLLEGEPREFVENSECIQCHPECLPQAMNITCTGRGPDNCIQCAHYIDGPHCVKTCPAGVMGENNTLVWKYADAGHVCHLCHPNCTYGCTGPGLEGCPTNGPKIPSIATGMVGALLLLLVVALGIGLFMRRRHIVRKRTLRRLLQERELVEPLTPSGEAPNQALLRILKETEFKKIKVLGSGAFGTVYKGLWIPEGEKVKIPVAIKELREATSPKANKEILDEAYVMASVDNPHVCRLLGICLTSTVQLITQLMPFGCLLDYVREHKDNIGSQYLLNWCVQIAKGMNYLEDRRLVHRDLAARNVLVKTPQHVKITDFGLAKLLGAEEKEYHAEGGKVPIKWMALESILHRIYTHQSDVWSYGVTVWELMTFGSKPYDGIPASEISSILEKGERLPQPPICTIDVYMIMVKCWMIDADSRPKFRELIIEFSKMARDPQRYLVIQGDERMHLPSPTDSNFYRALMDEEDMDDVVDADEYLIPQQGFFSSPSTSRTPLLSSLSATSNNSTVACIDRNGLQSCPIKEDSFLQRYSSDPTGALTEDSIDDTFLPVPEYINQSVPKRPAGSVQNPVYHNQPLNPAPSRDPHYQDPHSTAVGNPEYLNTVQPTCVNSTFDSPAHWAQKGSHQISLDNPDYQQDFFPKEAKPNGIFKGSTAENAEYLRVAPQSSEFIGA
T2 sequence (P00533 25-1210 T790M): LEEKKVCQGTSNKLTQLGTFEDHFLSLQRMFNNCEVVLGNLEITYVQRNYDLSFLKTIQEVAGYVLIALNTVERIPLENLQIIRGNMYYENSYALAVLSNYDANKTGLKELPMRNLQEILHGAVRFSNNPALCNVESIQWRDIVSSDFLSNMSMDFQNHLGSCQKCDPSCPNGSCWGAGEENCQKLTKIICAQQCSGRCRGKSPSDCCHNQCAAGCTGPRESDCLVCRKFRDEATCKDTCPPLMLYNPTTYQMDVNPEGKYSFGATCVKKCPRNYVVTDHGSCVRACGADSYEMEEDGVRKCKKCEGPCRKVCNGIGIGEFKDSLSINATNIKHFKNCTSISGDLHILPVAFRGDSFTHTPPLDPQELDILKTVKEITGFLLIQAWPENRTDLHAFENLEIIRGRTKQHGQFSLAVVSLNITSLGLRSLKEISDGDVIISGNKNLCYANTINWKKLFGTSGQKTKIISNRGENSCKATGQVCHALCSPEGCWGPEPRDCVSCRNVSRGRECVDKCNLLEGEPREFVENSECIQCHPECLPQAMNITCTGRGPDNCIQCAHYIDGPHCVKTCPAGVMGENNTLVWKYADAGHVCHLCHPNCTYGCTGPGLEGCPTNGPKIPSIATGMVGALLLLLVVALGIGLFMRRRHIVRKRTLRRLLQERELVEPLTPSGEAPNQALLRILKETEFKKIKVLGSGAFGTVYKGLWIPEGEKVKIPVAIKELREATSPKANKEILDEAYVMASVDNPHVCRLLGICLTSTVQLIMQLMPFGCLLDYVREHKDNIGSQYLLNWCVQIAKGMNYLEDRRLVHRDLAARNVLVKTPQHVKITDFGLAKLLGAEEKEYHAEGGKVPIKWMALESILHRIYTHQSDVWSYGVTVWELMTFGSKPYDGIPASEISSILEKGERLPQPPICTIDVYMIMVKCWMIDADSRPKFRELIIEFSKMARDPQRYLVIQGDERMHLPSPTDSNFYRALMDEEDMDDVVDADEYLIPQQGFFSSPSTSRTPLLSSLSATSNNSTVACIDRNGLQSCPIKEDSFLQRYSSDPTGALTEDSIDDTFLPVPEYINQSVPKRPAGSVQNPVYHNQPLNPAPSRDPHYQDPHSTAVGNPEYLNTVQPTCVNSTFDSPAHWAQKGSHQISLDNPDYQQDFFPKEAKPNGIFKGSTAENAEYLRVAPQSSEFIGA

Take `O=C(C=Cc1cccs1)c1ccc([N+](=O)[O-])cc1` [Compound 1, 1-(4-nitrophenyl)-3-(thiophen-2-yl)prop-2-en-1-one]: the IC50 was greater than 100 µM in the series with MCF-7 [1] and 90.5 µM in the series with HepG2 [2].
For the compound `O=[N+]([O-])c1ccc(C2=NNC(c3cccs3)C2)cc1` (stereo not drawn) [Compound 2, 3-(4-nitrophenyl)-5-(thiophen-2-yl)-4,5-dihydro-1H-pyrazole], the concentration for half-maximal inhibition (IC50) is 6.57 µM in the series on MCF-7 [1]; 8.86 µM in the series with HepG2 [2]; 59.5 µM against wild-type EGFR; 65.1 µM against EGFR mutant (T790M); 889 µM at VEGFR-2.
Turning to `CC(=O)N1N=C(c2ccc([N+](=O)[O-])cc2)CC1c1cccs1` (stereo not drawn) [Compound 3, 1-(3-(4-nitrophenyl)-5-(thiophen-2-yl)-4,5-dihydro-1H-pyrazol-1-yl) ethan-1-one], the IC50 with MCF-7 [1] was found to be 43.6 µM; with HepG2 [2], 53.2 µM.
In the same order, the values of `O=CN1N=C(c2ccc([N+](=O)[O-])cc2)CC1c1cccs1` (stereo not drawn) [Compound 4, 3-(4-nitrophenyl)-5-(thiophen-2-yl)-4,5-dihydro-1H-pyrazole-1-carbaldehyde] are 92.1 µM and 84 µM.
For `O=[N+]([O-])c1ccc(C2=Nc3ccccc3NC(c3cccs3)C2)cc1` (stereo not drawn) [Compound 5, 4-(4-nitrophenyl)-2-(thiophen-2-yl)-2,3-dihydro-1H-benzo[b][1,4] diazepine], the IC50 in the series with MCF-7 [1] was found to be 75.5 µM; in the series with HepG2 [2], 62.6 µM.
For `N#Cc1c(-c2cccs2)cc(-c2ccc([N+](=O)[O-])cc2)[nH]c1=O` [Compound 6, 6-(4-nitrophenyl)-2-oxo-4-(thiophen-2-yl)-1,2-dihydropyridine-3-carbonitrile], the results for the IC50 with MCF-7 [1] and in the series on HepG2 [2] were 23.3 µM and 28.9 µM, respectively.
In the case of `O=C(CCl)N1N=C(c2ccc([N+](=O)[O-])cc2)CC1c1cccs1` (stereo not drawn) [Compound 7, 2-chloro-1-(3-(4-nitrophenyl)-5-(thiophen-2-yl)-4,5-dihydro-1H-pyrazol-1-yl)ethan-1-one], the IC50 came to 75 µM in the series with MCF-7 [1] and 78.1 µM with HepG2 [2].
As for `O=C(O)c1ccccc1C(=O)N1N=C(c2ccc([N+](=O)[O-])cc2)CC1c1cccs1` (stereo not drawn) [Compound 8, 2-(3-(4-nitrophenyl)-5-(thiophen-2-yl)-4,5-dihydro-1H-pyrazole-1-carbonyl)benzoic acid], the IC50 was 8.08 µM in the series on MCF-7 [1]; 13.5 µM in the series with HepG2 [2]; 66.6 µM at wild-type EGFR; 121 µM at EGFR mutant (T790M); 85.1 µM on VEGFR-2.
On to `O=C(O)CCC(=O)N1N=C(c2ccc([N+](=O)[O-])cc2)CC1c1cccs1` (stereo not drawn) [Compound 9, 4-(3-(4-nitrophenyl)-5-(thiophen-2-yl)-4,5-dihydro-1H-pyrazol-1-yl)-4-oxobutanoic acid], for which the IC50 in the series with MCF-7 [1] amounted to 17.8 µM; with HepG2 [2], 22.6 µM.
In the same order, the values of `O=C(O)C=CC(=O)N1N=C(c2ccc([N+](=O)[O-])cc2)CC1c1cccs1` (stereo not drawn) [Compound 10, 4-(3-(4-nitrophenyl)-5-(thiophen-2-yl)-4,5-dihydro-1H-pyrazol-1-yl)-4-oxobut-2-enoic acid] are 32.6 µM and 36.4 µM.
For `O=[N+]([O-])c1ccc(C2=NN(CN3N=C(c4ccc([N+](=O)[O-])cc4)CC3c3cccs3)C(c3cccs3)C2)cc1` (stereo not drawn) [Compound 11, bis(3-(4-nitrophenyl)-5-(thiophen-2-yl)-4,5-dihydro-1H-pyrazol-1-yl)methane] the same measures were 87.4 µM and 74.2 µM.
For `COC(=O)/C=C(\C(=O)OC)N1N=C(c2ccc([N+](=O)[O-])cc2)CC1c1cccs1` (stereo not drawn) [Compound 12, dimethyl 2-(3-(4-nitrophenyl)-5-(thiophen-2-yl)-4,5-dihydro-1H-pyrazol-1-yl)maleate], the IC50 in the series with MCF-7 [1] stood at 51.7 µM; in the series on HepG2 [2], 59.3 µM.
Turning to `O=C(O)n1nc(-c2ccc([N+](=O)[O-])cc2)cc1-c1cccs1` [Compound 13, 3-(4-nitrophenyl)-5-(thiophen-2-yl)-1H-pyrazole-1-carboxylic acid], the results for the IC50 in the series with MCF-7 [1] and in the series with HepG2 [2] were 37.1 µM and 41.4 µM, respectively.
For `CC(=O)C1C(c2ccc([N+](=O)[O-])cc2)=NN(C=O)C1c1cccs1` (stereo not drawn) [Compound 14, 4-Acetyl-3-(4-nitrophenyl)-5-(thiophen-2-yl)-4,5-dihydro-1H-pyrazole-1-carbaldehyde], the IC50 with MCF-7 [1] was 12.9 µM; in the series on HepG2 [2], 19.6 µM; against wild-type EGFR it was 47.6 µM; at EGFR mutant (T790M) it was 48.3 µM; against VEGFR-2, 327 µM. For the same compound, in the series with MCF-7 cells [3], the “Cell cycle analysis Comment” value is “Cell cycle arrest at G1phase”. The “Cell cycle analysis %G2/M” value with MCF-7 cells [3] (control 16.74%) came out at 6.62%. Further, the “Cell cycle analysis %S” value in the series on MCF-7 cells [3] (control 27.95%) amounted to 19.22%. For the same compound, the “Cell cycle analysis %G0-G1” value in the series on MCF-7 cells [3] (control 55.31%) is reported as 74.16%. Also, the “Apoptosis Late” value in the series on MCF-7 cells [4] (control 0.14%) worked out at 7.1%. The “Apoptosis Early” value in the series with MCF-7 cells [4] (control 0.69%) was determined as 15.02%. The Necrosis in the series with MCF-7 cells [4] (control 2.36%) is recorded as 4.2%.
With `COc1cccc2c1C(=O)c1c(O)c3c(c(O)c1C2=O)C[C@@](O)(C(=O)CO)C[C@@H]3O[C@H]1C[C@H](N)[C@H](O)[C@H](C)O1` [Doxorubicin, doxorubicin, reference compound], the IC50 with HepG2 [2] turned out to be 4.5 µM.
Take `C#Cc1cccc(Nc2ncnc3cc(OCCOC)c(OCCOC)cc23)c1` [Erlotinib, erlotinib]: the IC50 in the series on MCF-7 [5] is 8.2 µM; in the series on HepG2 [6], 7.73 µM.
As to `Cc1ccc(-c2nnc(SCC(=O)N3N=C(c4cccs4)CC3c3ccc(Cl)cc3)o2)cc1` (stereo not drawn) [compound II], the IC50 in series [7] was 12 to 17 µM.
